Tests used:
Assay type in all cases: physicochemical
[1] = Influencing factor stability study; conditions: for physical and chemical stability: light exposure (4500 Lux), high temperature (40 °C and 60 °C), high humidity (RH 75% and RH 92.5%), 30 days
Description: Samples of the crystal forms D, E, and H were spread in open containers and left to stand under light exposure (4500 Lux), high temperature (40 °C and 60 °C), and high humidity (RH 75% and RH 92.5%) conditions for 1 month to investigate their stability.

[2] = DVS (dynamic vapor sorption) hygroscopicity testing
Text: According to the description of hygroscopicity characteristics and the definition of hygroscopic weight gain in "General Rule 9103, Guidelines for Hygroscopicity Trials for Pharmaceuticals" in the Chinese Pharmacopoeia, Volume IV, 2015 Edition: • deliquescent: sufficient water is absorbed to form a liquid; • extremely hygroscopic: the hygroscopic weight gain is not less than 15%; • hygroscopic: the hygroscopic weight gain is less than 15% but not less than 2%; • slightly hygroscopic: the hygroscopic weight gain is less than 2% but not less than 0.2%; • nonhygroscopic or practically nonhygroscopic: the hygroscopic weight gain is less than 0.2%.
DVS refers to dynamic vapor sorption: The analysis was performed using SMS DVS Advantage; at 25 °C, the humidity was changed as follows: 50%-95%-0%-95%-50%, in steps of 10% (5% for the last step) (specific humidity ranges are shown in corresponding patterns, and those listed here were used in most cases); the criterion was dm/dt being not greater than 0.002%.

[3] = Long-term/accelerated stability; conditions: for physical and chemical stability: long-term/accelerated conditions
Description: Samples of the crystal forms D, E, and H were left to stand under 25 °C/60% RH and 40 °C/75% RH conditions to investigate their stability: Table 30.

[4] = accelerated experimental conditions, 70% RH
[5] = normal storage conditions, 25 °C and 60% RH

C=CC(=O)N1[C@@H]2CC[C@H]1C[C@@H](Oc1ccc3ncnc(Nc4ccc(Oc5ccn6ncnc6c5)c(C)c4F)c3c1)C2 [Crystal form D, 1-(endo-3-((4-((4-([1,2,4]Triazolo[1,5-a]pyridin-7-yloxy)-2-fluoro-3-methylphenyl)amino)quinazolin-6-yl)oxy)-8-azabicyclo[3.2.1]octan-8-yl)prop-2-en-1-one]
Color and appearance ([1]; 40 °C, 1 month): White powder
Crystal form ([1]; 40 °C, 1 month): No change
Purity (%) ([1]; 40 °C, 1 month): 99.0%
Color and appearance ([1]; 40 °C, 7 days): White powder
Crystal form ([1]; 40 °C, 7 days): No change
Color and appearance ([1]; 40 °C, 13 days): White powder
Crystal form ([1]; 40 °C, 13 days): No change
Purity (%) ([1]; 40 °C, 13 days): 99.4%
Color and appearance ([1]; 60 °C, 1 month): White powder
Crystal form ([1]; 60 °C, 1 month): No change
Purity (%) ([1]; 60 °C, 1 month): 99.2%
Color and appearance ([1]; 60 °C, 7 days): White powder
Crystal form ([1]; 60 °C, 7 days): No change
Color and appearance ([1]; 60 °C, 13 days): White powder
Crystal form ([1]; 60 °C, 13 days): No change
Purity (%) ([1]; 60 °C, 13 days): 99.4%
Color and appearance ([1]; 75% RH, 1 month): White powder
Crystal form ([1]; 75% RH, 1 month): No change
Color and appearance ([1]; 75% RH, 13 days): White powder
Crystal form ([1]; 75% RH, 13 days): No change
Color and appearance ([1]; 92.5% RH, 1 month): White powder
Crystal form ([1]; 92.5% RH, 1 month): No change
Color and appearance ([1]; 92.5% RH, 13 days): White powder
Crystal form ([1]; 92.5% RH, 13 days): No change
Color and appearance ([1]; 4500 Lux, 1 month): White powder
Crystal form ([1]; 4500 Lux, 1 month): No change
Purity (%) ([1]; 4500 Lux, 1 month): 99.2%
Color and appearance ([1]; 4500 Lux, 7 days): White powder
Crystal form ([1]; 4500 Lux, 7 days): No change
Purity (%) ([1]; 4500 Lux, 7 days): 99.4%
Color and appearance ([1]; 4500 Lux, 13 days): White powder
Crystal form ([1]; 4500 Lux, 13 days): No change
Purity (%) ([1]; 4500 Lux, 13 days): 99.3%
Color and appearance ([1]; Initial, 0): White powder
Crystal form ([1]; Initial, 0): Crystal form D
physical and chemical stability [1]: Conclusion: Standing under light exposure (4500 Lux), high temperature (40 °C and 60 °C), and high humidity (RH 75% and RH 92.5%) conditions for 30 days, the crystal form D exhibited good physical and chemical stability.
hygroscopic weight gain [2, 4]: about 3.23%
crystal form re-identified after DVS testing [2]: the crystal form did not change
hygroscopic weight gain ([2]; extreme conditions, 90% RH): about 3.52%
hygroscopic weight gain [2, 5]: about 3.07%
Color and appearance ([3]; 25 °C/60% RH, 1 month): White powder
Crystal form ([3]; 25 °C/60% RH, 1 month): No change
Color and appearance ([3]; 25 °C/60% RH, 2 months): White powder
Crystal form ([3]; 25 °C/60% RH, 2 months): No change
Color and appearance ([3]; 25 °C/60% RH, 3 months): White powder
Crystal form ([3]; 25 °C/60% RH, 3 months): No change
Color and appearance ([3]; 25 °C/60% RH, 6 months): White powder
Crystal form ([3]; 25 °C/60% RH, 6 months): No change
Color and appearance ([3]; 25 °C/60% RH, 14 days): White powder
Crystal form ([3]; 25 °C/60% RH, 14 days): No change
Color and appearance ([3]; 40 °C/75% RH, 1 month): White powder
Crystal form ([3]; 40 °C/75% RH, 1 month): No change
Color and appearance ([3]; 40 °C/75% RH, 2 months): White powder
Crystal form ([3]; 40 °C/75% RH, 2 months): No change
Color and appearance ([3]; 40 °C/75% RH, 3 months): White powder
Crystal form ([3]; 40 °C/75% RH, 3 months): No change
Color and appearance ([3]; 40 °C/75% RH, 6 months): White powder
Crystal form ([3]; 40 °C/75% RH, 6 months): No change
Color and appearance ([3]; 40 °C/75% RH, 14 days): White powder
Crystal form ([3]; 40 °C/75% RH, 14 days): No change
Color and appearance ([3]; Initial, 0): White powder
Crystal form ([3]; Initial, 0): Crystal form D
physical and chemical stability [3]: Conclusion: Under long-term/accelerated conditions, the crystal form D exhibited good physical and chemical stability.

C=CC(=O)N1[C@@H]2CC[C@H]1C[C@@H](Oc1ccc3ncnc(Nc4ccc(Oc5ccn6ncnc6c5)c(C)c4F)c3c1)C2 [Crystal form E, 1-(endo-3-((4-((4-([1,2,4]Triazolo[1,5-a]pyridin-7-yloxy)-2-fluoro-3-methylphenyl)amino)quinazolin-6-yl)oxy)-8-azabicyclo[3.2.1]octan-8-yl)prop-2-en-1-one]
Color and appearance ([1]; 40 °C, 1 month): White powder
Crystal form ([1]; 40 °C, 1 month): No change
Purity (%) ([1]; 40 °C, 1 month): 99.3%
Color and appearance ([1]; 40 °C, 7 days): White powder
Crystal form ([1]; 40 °C, 7 days): No change
Color and appearance ([1]; 40 °C, 14 days): White powder
Crystal form ([1]; 40 °C, 14 days): No change
Color and appearance ([1]; 60 °C, 1 month): White powder
Crystal form ([1]; 60 °C, 1 month): No change
Color and appearance ([1]; 60 °C, 7 days): White powder
Crystal form ([1]; 60 °C, 7 days): No change
Color and appearance ([1]; 60 °C, 14 days): White powder
Crystal form ([1]; 60 °C, 14 days): No change
Color and appearance ([1]; 75% RH, 1 month): White powder
Crystal form ([1]; 75% RH, 1 month): No change
Color and appearance ([1]; 75% RH, 7 days): White powder
Crystal form ([1]; 75% RH, 7 days): No change
Color and appearance ([1]; 75% RH, 14 days): White powder
Crystal form ([1]; 75% RH, 14 days): No change
Color and appearance ([1]; 92.5% RH, 1 month): White powder
Crystal form ([1]; 92.5% RH, 1 month): No change
Color and appearance ([1]; 92.5% RH, 7 days): White powder
Crystal form ([1]; 92.5% RH, 7 days): No change
Color and appearance ([1]; 92.5% RH, 14 days): White powder
Crystal form ([1]; 92.5% RH, 14 days): No change
Color and appearance ([1]; 4500 Lux, 1 month): White powder
Crystal form ([1]; 4500 Lux, 1 month): No change
Purity (%) ([1]; 4500 Lux, 1 month): 99.4%
Color and appearance ([1]; 4500 Lux, 7 days): White powder
Crystal form ([1]; 4500 Lux, 7 days): No change
Color and appearance ([1]; 4500 Lux, 14 days): White powder
Crystal form ([1]; 4500 Lux, 14 days): No change
Color and appearance ([1]; Initial, 0): White powder
Crystal form ([1]; Initial, 0): Crystal form E
physical and chemical stability [1]: Conclusion: Standing under light exposure (4500 Lux), high temperature (40 °C and 60 °C), and high humidity (RH 75% and RH 92.5%) conditions for 30 days, the crystal form E exhibited good physical and chemical stability.
hygroscopic weight gain [2, 4]: about 0.15%
crystal form re-identified after DVS testing [2]: the crystal form did not change
hygroscopic weight gain ([2]; extreme conditions, 90% RH): about 0.25%
hygroscopic weight gain [2, 5]: about 0.11%
Color and appearance ([3]; 25 °C/60% RH, 1 month): White powder
Crystal form ([3]; 25 °C/60% RH, 1 month): No change
Color and appearance ([3]; 25 °C/60% RH, 2 months): White powder
Crystal form ([3]; 25 °C/60% RH, 2 months): No change
Color and appearance ([3]; 25 °C/60% RH, 3 months): White powder
Crystal form ([3]; 25 °C/60% RH, 3 months): No change
Color and appearance ([3]; 25 °C/60% RH, 6 months): White powder
Crystal form ([3]; 25 °C/60% RH, 6 months): No change
Color and appearance ([3]; 25 °C/60% RH, 14 days): White powder
Crystal form ([3]; 25 °C/60% RH, 14 days): No change
Color and appearance ([3]; 40 °C/75% RH, 1 month): White powder
Crystal form ([3]; 40 °C/75% RH, 1 month): No change
Color and appearance ([3]; 40 °C/75% RH, 2 months): White powder
Crystal form ([3]; 40 °C/75% RH, 2 months): No change
Color and appearance ([3]; 40 °C/75% RH, 3 months): White powder
Crystal form ([3]; 40 °C/75% RH, 3 months): No change
Color and appearance ([3]; 40 °C/75% RH, 6 months): White powder
Crystal form ([3]; 40 °C/75% RH, 6 months): No change
Color and appearance ([3]; 40 °C/75% RH, 14 days): White powder
Crystal form ([3]; 40 °C/75% RH, 14 days): No change
Color and appearance ([3]; Initial, 0): White powder
Crystal form ([3]; Initial, 0): Crystal form E
physical and chemical stability [3]: Conclusion: Under long-term/accelerated conditions, the crystal form E exhibited good physical and chemical stability.

C=CC(=O)N1[C@@H]2CC[C@H]1C[C@@H](Oc1ccc3ncnc(Nc4ccc(Oc5ccn6ncnc6c5)c(C)c4F)c3c1)C2 [Crystal form J, 1-(endo-3-((4-((4-([1,2,4]Triazolo[1,5-a]pyridin-7-yloxy)-2-fluoro-3-methylphenyl)amino)quinazolin-6-yl)oxy)-8-azabicyclo[3.2.1]octan-8-yl)prop-2-en-1-one]
hygroscopic weight gain [2, 4]: about 2.64%
hygroscopic weight gain ([2]; extreme conditions, 90% RH): about 8.10%
hygroscopic weight gain [2, 5]: about 2.44%

Source: patent EP4786474A1, “CRYSTALLINE FORM OF QUINAZOLINE DERIVATIVE AND PREPARATION METHOD THEREFOR” (Jiangsu Hengrui Pharmaceuticals Co., Ltd., priority 2023, dated 2025)
